Literature values in patent publication US8409637B2, “Compositions and methods for treating and preventing migrainous headaches and associated symptoms” (Puramed Bioscience Inc., priority 2007, dated 2013).

Assays:
[1] = molecular target: T1, COX-2 (Homo sapiens, UniProt P35354)
T1 sequence (P35354 18-604): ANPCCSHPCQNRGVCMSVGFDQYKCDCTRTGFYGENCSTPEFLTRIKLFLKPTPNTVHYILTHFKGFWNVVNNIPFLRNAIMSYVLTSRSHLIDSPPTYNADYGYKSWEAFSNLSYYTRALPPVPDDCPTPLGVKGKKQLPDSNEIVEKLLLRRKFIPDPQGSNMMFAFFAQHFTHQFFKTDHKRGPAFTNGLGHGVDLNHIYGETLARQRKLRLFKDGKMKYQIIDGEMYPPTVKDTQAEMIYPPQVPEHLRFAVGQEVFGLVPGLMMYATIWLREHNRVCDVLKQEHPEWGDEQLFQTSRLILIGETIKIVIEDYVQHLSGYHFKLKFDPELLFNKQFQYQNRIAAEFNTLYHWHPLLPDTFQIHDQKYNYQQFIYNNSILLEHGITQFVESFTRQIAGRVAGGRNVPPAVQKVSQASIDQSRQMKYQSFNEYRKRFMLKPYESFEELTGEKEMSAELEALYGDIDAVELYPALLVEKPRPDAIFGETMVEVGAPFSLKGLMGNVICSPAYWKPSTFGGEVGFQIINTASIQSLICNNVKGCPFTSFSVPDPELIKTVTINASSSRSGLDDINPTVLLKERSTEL

[2] = test system: COX-1

Inhibition of COX-2 enzyme activity [1]: inhibits
Inhibition of COX-1 enzyme activity [2]: inhibits
Structure (SMILES): C/C=C(/C=O)[C@@H](CC=O)CC(=O)OCCc1ccc(O)cc1 [oleocanthal]
